Read-outs that look alike come from different tables or passages of the source.
Columns and labels:
[1] = test system: PBMC from T. gondii-seropositive HLA-A03 individuals; assay: IFN-γ ELISpot assay with human PBMC; assay type: cell-based; settings: for IFN-γ-secreting spot formation: PBMC from Toxoplasma seropositive HLA-A03 individuals, compared to an irrelevant HLA-A*1101-restricted peptide
Description: To determine which of these peptides would be recognized in the context of Toxoplasma infection, peripheral blood mononuclear cells (PBMC) from T. gondii-seropositive HLA-A03 individuals were tested for response to these peptides in pools or individually by using an IFN-γ ELISpot assay. Candidate peptides were considered immunogenic if they induced IFN-γ-secreting spot formation that was significant compared to an irrelevant HLA-A*1101-restricted peptide.
The epitopes were linked together with N/K alanines or GPGPG (SEQ ID NO: 23) as linker, named as LO and AZ, respectively (FIG. 3A-B). […] Immunogenicity of the two proteins compared to the pool of the 5 individual A11-restricted CD8^+ T cell epitope peptides was tested in vitro.
PBMC were obtained from individuals seropositive to T. gondii, and their HLA haplotype was determined.

[2] = Immune response to Tox-All in HLA transgenic mice; parameters: species or system HLA A2 and HLA A11 mice; settings: mouse, in vivo
Excerpt: The schematic diagrams of SAPN A11 (SEQ ID NO:27) in FIG. 17A 12e is similar to the schematic diagram of the more complex SAPN Tox-All (FIG. 17B). (FIG. 12f). […] Tox-All contains CD8 T cell eliciting epitopes by binding to HLA All, A2, and B7, PADRE a universal CD4 T cell eliciting epitope, protein domains that can elicit antibody (data not shown). Tox-All has the same scaffold flagellin that is shown for SAPN A11. […] Additional CD8 peptides that bind to other HLA molecules to broaden population coverage and CD4 peptides can be added in this complex SAPN. Additional proteins that elicit B cells can also be included in the SAPN. This allows us to tailor an immune response for each component of the immune system we wish to stimulate. The methods and approaches are those described for the A11 SAPN.

TLR5 = molecular target: T1, TLR5 (Homo sapiens, UniProt O60602); assay type: cell-based; settings: for TLR5 activity (SEAP expression): 0.01-1000 ng/ml, 24 hours
T1 construct: expressed in transfected cells; host or cells: HEK 293 (stably co-transfected with TLR5 and NF-kB-driven SEAP reporter)
T1 sequence (O60602 21-858): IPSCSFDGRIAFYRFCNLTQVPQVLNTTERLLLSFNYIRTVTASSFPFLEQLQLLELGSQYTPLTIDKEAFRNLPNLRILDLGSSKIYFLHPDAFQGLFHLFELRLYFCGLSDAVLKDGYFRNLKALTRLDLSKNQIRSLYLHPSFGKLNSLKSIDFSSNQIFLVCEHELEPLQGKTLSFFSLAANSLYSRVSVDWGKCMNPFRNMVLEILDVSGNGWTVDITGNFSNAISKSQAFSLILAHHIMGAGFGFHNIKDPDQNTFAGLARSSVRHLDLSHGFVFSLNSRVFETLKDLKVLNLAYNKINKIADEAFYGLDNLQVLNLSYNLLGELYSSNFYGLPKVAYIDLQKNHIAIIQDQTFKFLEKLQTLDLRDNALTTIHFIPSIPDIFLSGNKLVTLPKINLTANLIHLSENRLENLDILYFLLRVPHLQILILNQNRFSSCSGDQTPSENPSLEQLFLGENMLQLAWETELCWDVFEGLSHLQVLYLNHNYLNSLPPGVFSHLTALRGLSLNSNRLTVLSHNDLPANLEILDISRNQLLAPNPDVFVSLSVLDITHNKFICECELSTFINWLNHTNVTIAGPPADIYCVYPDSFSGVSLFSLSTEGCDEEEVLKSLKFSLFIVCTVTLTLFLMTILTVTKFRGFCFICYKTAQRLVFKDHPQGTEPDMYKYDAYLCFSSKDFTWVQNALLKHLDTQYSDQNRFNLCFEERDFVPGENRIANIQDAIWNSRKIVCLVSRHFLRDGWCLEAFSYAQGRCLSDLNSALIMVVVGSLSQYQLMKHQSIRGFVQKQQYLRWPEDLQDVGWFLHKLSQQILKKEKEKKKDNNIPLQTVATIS

AVVSLLRLLK [GRA589-98]
IFN-γ-secreting spot formation [1]: stimulated significant response

Concanavalin A [Con A, reference compound]
IFN-γ ELISpot response, seropositive versus seronegative donors ([1]; PBMC of 3 seropositive and 3 seronegative HLA-A03 individuals): response of PBMC from both seronegative and seropositive donors

SSAYVFSVK [SRS52A250-258]
IFN-γ-secreting spot formation [1]: stimulated significant response

STFWPCLLR [SAG2C13-21]
IFN-γ-secreting spot formation [1]: stimulated significant response

B1: Tox-All: SAPN with HLA A11, A2 and B7 CD8 epitopes, PADRE, antibody-eliciting domains and flagellin (protein)
chain: MGDDHHHHHHHHHHWFMGVLVNSLQDITMGSLFFVQDFMIVSISLVQDGLAAAVVAVQDLPQFATAATRDSPASGRYIQQMLDQRCQEIAAELCQSGLRKMCVPSSRIVARNAVGITHQNTLQWRCFDTASLLESNQENNGVNCVDDCGHTIPCPGGVHRQNSNHATRHEILSKLVEEGVQRFCSPYQASANKYCNDKFPGTIARRSKGFGNNVEVAWRCYEKASLLYSVYAECASNCGTTWYCPGGRRGTSTELDKRHYTEEEGIRQAIGSVDSPCSEVEVCLPKDENPPLCLDESGQISRGSWEEWNARWDEWENDWNDWREDWQAWRDDWARWRATWMGGRLLSRLERLERRNEELRRLLQLIRHENRMVLQFVRALSMQNAELERRLEELARGMAQVINTNSLSLLTQNNLNRSQSALGTAIERLSSGLRINSARDDAAGQAIANRFTANIRGLTQASRNANDGISIAQTTEGALNEINNNLQRVRELAVQSANSTNSQSDLDSIQAEITQRLNEIDRVSGQTQFNGVRVLAQDNTLTIQVGANDGETIDIDLRQINSQTLGLDQLNVQQEYESDDAVVSLLRLLKNAMLTAFFLRNAAAKSFKDILPKKAAASSAYVFSVKKAAAKFVAAWTLKAAAKSTFWPCLLRDSDSDTENPLQRIDAALAQVDALRSDLGAVQNRFNSAITNLGNTVNNLSEARSRIEDSDYATEVSNMSRAQILQQAGTSVLAQANQVPQNVLSLLR
modifications: (1)..(14) optionally absent
immune response [2]: stimulates an immune response | TLR5 stimulation (TLR5; data not shown): stimulates TLR5

B2: CD8-SAPN: self-assembling protein nanoparticle with five CD8+ epitopes and PADRE inserted into flagellin (protein)
chain: MGDKHHHHHHHHHHKDGSDKGSWEEWNARWDEWENDWNDWREDWQAWRDDWARWRATWMGGRLLSRLERLERRNEELRRLLQLIRHENRMVLQFVRALSMQNAELERRLEELARGMAQVINTNSLSLLTQNNLNRSQSALGTAIERLSSGLRINSARDDAAGQAIANRFTANIRGLTQASRNANDGISIAQTTEGALNEINNNLQRVRELAVQSANSTNSQSDLDSIQAEITQRLNEIDRVSGQTQFNGVRVLAQDNTLTIQVGANDGETIDIDLRQINSQTLGLDQLNVQQEYESDDAVVSLLRLLKNAMLTAFFLRNAAAKSFKDILPKKAAASSAYVFSVKKAAAKFVAAWTLKAAAKSTFWPCLLRDSDSDTENPLQRIDAALAQVDALRSDLGAVQNRFNSAITNLGNTVNNLSEARSRIEDSDYATEVSNMSRAQILQQAGTSVLAQANQVPQNVLSLLR
modifications: (1)..(14) optionally absent
TLR5 activity (SEAP expression) (TLR5): significantly enhanced | TLR5 activity (SEAP expression) (TLR5; listed as SAPN): good stimulation

— patent publication US11969465B2, “Toxoplasma gondii vaccines and their use” (Alpha-O Peptides AG, priority 2016, dated 2024)
